US12642270B2, “Substituted thiophene carboxamides, thiophene carboxylic acids and derivatives thereof” (Bayer Aktiengesellschaft, priority 2019, dated 2026)

experiment: Log P by HPLC on reversed phase columns (EEC directive 79/831 Annex V.A8); assay type: physicochemical; settings: LogP method [a]; compounds of formula (I), Table 1.1
Method in brief: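 Values come from retention times calibrated against alkan-2-ones (3–16 carbons) by linear interpolation, using reversed-phase LC-UV per EEC directive 79/831 Annex V.A8. Acetonitrile gradient 10–95% with 0.1% formic acid [a], 0.001 M ammonium acetate [b] or 0.1% phosphoric acid [c]; several values within one method separated by "+".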

LogP | SMILES
3.32^[a] | COC(=O)C(C)(C)NC(=O)c1sc(C(F)F)c(Br)c1Br [1.0513]
4.30^[a] | CCOC(=O)C(NC(=O)c1sc(C(F)F)c(Br)c1Br)C(C)C (centres unmarked) [1.0514]
3.46^[a] | COC(=O)C(NC(=O)c1sc(C(F)F)c(Br)c1Br)C1CC1 (centres unmarked) [1.0515]
4.48^[a] | CCOC(=O)C(Cc1ccccc1)NC(=O)c1sc(C(F)F)c(Br)c1Br (centres unmarked) [1.0516]
3.35^[a] | COC(=O)C1(NC(=O)c2sc(C(F)F)c(Br)c2Br)CCC1 [1.0517]
3.75^[a] | CCOC(=O)C1(NC(=O)c2sc(C(F)F)c(Br)c2Br)CCC1 [1.0518]
3.51^[a] | CCCOC(=O)C1(NC(=O)c2sc(C(F)F)c(Br)c2Br)CC1 [1.0519]
3.67^[a] | O=C(NC1(C(=O)OC2CCC2)CC1)c1sc(C(F)F)c(Br)c1Br [1.0520]
2.45^[a] | N#CCNC(=O)c1sc(C(F)F)c(Br)c1Br [1.0521]
3.14^[a] | CCOC(=O)C1(NC(=O)c2sc(C(F)F)c(Br)c2Br)CC1 [1.0522]
2.54^[a] | CC(C)(NC(=O)c1sc(Br)c(Br)c1F)C(=O)O [1.0523]
4.35^[a] | CCOC(=O)C(NC(=O)c1sc(Cl)c(Cl)c1Br)C1CC1 (centres unmarked) [1.0524]
3.67^[a] | COC(=O)C1(NC(=S)c2sc(Br)c(Cl)c2C)CC1 [1.0526]
2.52^[a] | COC(=O)CNC(=O)c1sc(Br)c(Br)c1F [1.0527]
4.55^[a] | COC(=O)C(CC(=O)OC(C)(C)C)NC(=O)c1sc(Br)c(Br)c1Cl (centres unmarked) [1.0528]
3.58^[a] | COC(=O)[C@H](CSC(=O)N(C)C)NC(=O)c1sc(Cl)c(Cl)c1Br [1.0529]

same assay, conditions: method [a]

LogP | SMILES
3.39^[a] | CCNC(=O)SC[C@H](NC(=O)c1sc(Cl)c(Cl)c1Br)C(=O)OC [1.0530]
3.56^[a] | CNC(=S)SC[C@H](NC(=O)c1sc(Cl)c(Cl)c1Br)C(=O)OC [1.0531]
4.23^[a] | CCOC(=O)CC[C@H](NC(=O)c1sc(Br)c(Br)c1Cl)C(=O)OCC [1.0532]
3.27^[a] | COC(=O)[C@H](CSC(=O)N(C)C)NC(=O)c1sc(Br)c(Br)c1F [1.0533]
3.24^[a] | CNC(=S)SC[C@H](NC(=O)c1sc(Br)c(Br)c1F)C(=O)OC [1.0534]
3.59^[a] | COC(=O)C(CSC(=O)N(C)C)NC(=O)c1sc(Br)c(Br)c1Cl (centres unmarked) [1.0535]
3.38^[a] | CCNC(=O)SCC(NC(=O)c1sc(Br)c(Br)c1Cl)C(=O)OC (centres unmarked) [1.0536]
3.54^[a] | CNC(=S)SC[C@H](NC(=O)c1sc(Br)c(Br)c1Cl)C(=O)OC [1.0537]
3.74^[a] | COC(=O)CNC(=S)c1sc(Br)c(Br)c1F [1.0538]
2.09^[a] | COC(=O)C1(NC(=O)c2sc(Br)c(Br)c2F)CC1 [1.0539]
3.34^[a] | COC(=O)C(C)(C)NC(=O)c1sc(Br)c(Br)c1F [1.0540]
2.49^[a] | COC(=O)C1(NC(=O)c2sc(Br)c(Br)c2F)COC1 [1.0541]
2.54^[a] | CCOC(=O)CN(O)C(=O)c1sc(Br)c(Br)c1F [1.0542]
3.10^[a] | CCNC(=O)SC[C@H](NC(=O)c1sc(Br)c(Br)c1F)C(=O)OC [1.0543]
3.05^[a] | COC(=O)C(C1CC1)N(O)C(=O)c1sc(Cl)c(Cl)c1Br (centres unmarked) [1.0544]
4.15^[a] | CCOC(=O)C[C@H](NC(=O)c1sc(Br)c(Br)c1Cl)C(=O)OCC [1.0545]
3.33^[a] | COC(=O)C[C@H](NC(=O)c1sc(Br)c(Br)c1Cl)C(=O)OC [1.0546]
3.46^[a] | CCOC(=O)C(CSC(C)=O)NC(=O)c1sc(Cl)c(Cl)c1Br (centres unmarked) [1.0547]
3.33^[a] | COC(=O)C[C@H](NC(=O)c1sc(Cl)c(Cl)c1Br)C(=O)OC [1.0548]
3.41^[a] | COC(=O)CC[C@H](NC(=O)c1sc(Cl)c(Cl)c1Br)C(=O)OC [1.0549]
4.32^[a] | CCOC(=O)C(CSC)NC(=O)c1sc(Br)c(Br)c1Cl (centres unmarked) [1.0550]
4.17^[a] | CCOC(=O)C[C@H](NC(=O)c1sc(Cl)c(Cl)c1Br)C(=O)OCC [1.0551]
